Laboratory results from patent US10463592B2, “Peptide with anti-aging effect and use thereof” (Osaka University, priority 2013, dated 2019).
Where no end group is shown, it is not given here.

Columns and labels:
CD54 expression in THP-1 = test: h-CLAT assay, CD54 expression; assay type: cell-based, human; conditions: positive if RFI of CD54>200; FIG. 3
Description: (§1) Into a 75-cm^2 flask was placed 50 mL of a suspension of the human monocytic cell line THP-1 (JCRB accession number: JCRB0112) at a density of 2.0×10^5 cells/mL in RPMI 1640 culture medium containing 10% FBS and 0.05 mM mercaptoethanol. The cells were precultured for 48 hours. The precultured THP-1 cells were harvested by centrifugation and suspended at 2.0×10^6 cells/mL in RPMI 1640 culture medium containing 10% FBS and 0.05 mM mercaptoethanol. To each well of 24-well plates, 500 μL of the cell suspension was seeded. To each well containing the seeded cell suspension, 500 μL of each peptide in the same culture medium was added. […] Then, 1×10^4 living cells were analyzed by flow cytometry to determine the expression levels of the cell surface antigens. […] The relative fluorescence intensities (RFIs) were calculated from the mean of the measured fluorescence intensities (MFIs) in accordance with the following equation.
(§2) From the survival rates and the RFI values of CD86 and CD54 expressions, the sensitization potentials were evaluated. The sensitization potentials of the test samples were determined to be positive when the RFIs of the antigen expressions in the sample treatment groups satisfy the following equations: the RFI of CD86>150, and the RFI of CD54>200. […]

CD86 expression in THP-1 = test: h-CLAT assay, CD86 expression; assay type: cell-based, human; conditions: positive if RFI of CD86>150, FIG. 2
Description: Into a 75-cm^2 flask was placed 50 mL of a suspension of the human monocytic cell line THP-1 (JCRB accession number: JCRB0112) at a density of 2.0×10^5 cells/mL in RPMI 1640 culture medium containing 10% FBS and 0.05 mM mercaptoethanol. The cells were precultured for 48 hours. The precultured THP-1 cells were harvested by centrifugation and suspended at 2.0×10^6 cells/mL in RPMI 1640 culture medium containing 10% FBS and 0.05 mM mercaptoethanol. To each well of 24-well plates, 500 μL of the cell suspension was seeded. To each well containing the seeded cell suspension, 500 μL of each peptide in the same culture medium was added. After 24 hours of incubation, the cells were harvested by centrifugation and were washed twice with PBS containing 0.1% BSA (FACS buffer). The cells were then suspended in 600 μL of FACS buffer containing a 0.01% human γ-globulin solution (Sigma, G2388) and incubated at 4° C. for 10 minutes to block the Fc receptor. The cell suspension was then split into three 180-μL aliquots for conducting an antibody reaction. The aliquots were each transferred to a 1.5-mL tube and centrifuged to give a pellet. To each pellet was added 50 μL of each of solutions of three different FITC-conjugated antibodies, i.e., FITC-conjugated CD86 antibody (Pharmingen; Cat #555657), FITC-conjugated CD54 antibody (Dako; Cat #F7143) and FITC-conjugated isotype control (Mouse IgG) antibody (Dako; Cat #X0927), that were adjusted to an appropriate concentration with FACS buffer. The mixture was incubated at 4° C. for 30 minutes. After the incubation, the cells were harvested by centrifugation and washed twice with FACS buffer. The cells were harvested by centrifugation and suspended in 200 μL of FACS buffer containing 0.625 μg/mL propidium iodide. Then, 1×10^4 living cells were analyzed by flow cytometry to determine the expression levels of the cell surface antigens. No gating on forward or side scatter was used. The relative fluorescence intensities (RFIs) were calculated from the mean of the measured fluorescence intensities (MFIs) in accordance with the following equation.
From the survival rates and the RFI values of CD86 and CD54 expressions, the sensitization potentials were evaluated. The sensitization potentials of the test samples were determined to be positive when the RFIs of the antigen expressions in the sample treatment groups satisfy the following equations: the RFI of CD86>150, and the RFI of CD54>200. (2) Results

[1] = tested on: human monocytic cell line THP-1; test: Sensitization test by the h-CLAT assay (overall evaluation); assay type: cell-based; conditions: even at high concentrations; positive if RFI of CD86>150 and RFI of CD54>200; 24 hours
Description: as §1, §2

Molecule | sensitization potential for CD54 expression (CD54 expression in THP-1) | sensitization potential for CD86 expression (CD86 expression in THP-1; at high concentrations) | sensitization potential for CD86 expression (CD86 expression in THP-1; at low concentrations) | sensitization potential [1]
CC[C@H](C)[C@H](NC(=O)[C@H](CCCCN)NC(=O)[C@H](CCC(=O)O)NC(=O)[C@H](CCCCN)NC(=O)[C@H](CO)NC(=O)[C@H](CCCCN)NC(=O)[C@H](CCCNC(=N)N)NC(=O)[C@H](Cc1ccccc1)NC(=O)[C@H](Cc1ccccc1)NC(=O)[C@H](CC(=O)O)NC(=O)CNC(=O)[C@H](CC(C)C)NC(=O)[C@@H](N)CC(C)C)C(=O)NCC(=O)N[C@@H](CCCCN)C(=O)N[C@@H](CCC(=O)O)C(=O)N[C@@H](Cc1ccccc1)C(=O)N[C@@H](CCCCN)C(=O)N[C@@H](CCCNC(=N)N)C(=O)N[C@H](C(=O)N[C@H](C(=O)N[C@@H](CCC(N)=O)C(=O)N[C@@H](CCCNC(=N)N)C(=O)N[C@H](C(=O)N[C@@H](CCCCN)C(=O)N[C@@H](CC(=O)O)C(=O)N[C@@H](Cc1ccccc1)C(=O)N[C@@H](CC(C)C)C(=O)N[C@@H](CCCNC(=N)N)C(=O)N[C@@H](CC(N)=O)C(=O)N[C@@H](CC(C)C)C(=O)N[C@H](C(=O)N1CCC[C@H]1C(=O)N[C@@H](CCCNC(=N)N)C(=O)N[C@H](C(=O)N[C@@H](CCC(=O)O)C(=O)N[C@@H](CO)C(=O)O)[C@@H](C)O)C(C)C)[C@@H](C)CC)C(C)C)[C@@H](C)CC [LL-37] | negative | positive | negative | 
Ac-HRLKR-NH2 [OSK-9, HRLKR] |  |  |  | negative
Ac-IFLHR-NH2 [OSK-6, IFLHR] |  |  |  | negative
GIGKFLHSAKKFGKAFVGEIMNS [magainin] | negative | positive | negative | 
